Experimental data: PubChem BioAssay (NCI)
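Test compounds were applied to cells in 96-well plates for 48 hours at 5 doses. GI50 is the concentration that inhibits growth by half. TGI: concentration producing complete growth inhibition.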

Columns and labels:
Assay in all cases: NCI tumour cell line growth inhibition, 48 h
HOP-92 NSCLC = test system: HOP-92 NSCLC
786-0 renal = test system: 786-0 renal
OVCAR-4 ovarian = test system: OVCAR-4 ovarian
SR leukemia = test system: SR leukemia
SF-539 CNS = test system: SF-539 CNS
SK-OV-3 ovarian = test system: SK-OV-3 ovarian
KM12 colon = test system: KM12 colon
EKVX NSCLC = test system: EKVX NSCLC
CCRF-CEM leukemia = test system: CCRF-CEM leukemia
TK-10 renal = test system: TK-10 renal
T-47D breast = test system: T-47D breast
ACHN renal = test system: ACHN renal
HCT-15 colon = test system: HCT-15 colon
SNB-19 CNS = test system: SNB-19 CNS
HL-60(TB) leukemia = test system: HL-60(TB) leukemia
OVCAR-8 ovarian = test system: OVCAR-8 ovarian
MCF7 breast = test system: MCF7 breast
SK-MEL-2 melanoma = test system: SK-MEL-2 melanoma
MOLT-4 leukemia = test system: MOLT-4 leukemia
SF-268 CNS = test system: SF-268 CNS
OVCAR-5 ovarian = test system: OVCAR-5 ovarian
NCI-H522 lung = test system: NCI-H522 lung
NCI-H226 lung = test system: NCI-H226 lung
HS 578T breast = test system: HS 578T breast
UACC-62 melanoma = test system: UACC-62 melanoma
RXF 393 renal = test system: RXF 393 renal
A549 NSCLC = test system: A549 NSCLC
SK-MEL-5 melanoma = test system: SK-MEL-5 melanoma
RPMI-8226 leukemia = test system: RPMI-8226 leukemia
IGROV1 ovarian = test system: IGROV1 ovarian
HT29 colon = test system: HT29 colon
SW-620 colon = test system: SW-620 colon
PC-3 prostate = test system: PC-3 prostate
NCI-H23 lung = test system: NCI-H23 lung
HOP-62 NSCLC = test system: HOP-62 NSCLC
HCT-116 colon = test system: HCT-116 colon
SNB-75 CNS = test system: SNB-75 CNS
U251 CNS = test system: U251 CNS
HCC-2998 colon = test system: HCC-2998 colon
LOX IMVI melanoma = test system: LOX IMVI melanoma
SN12C renal = test system: SN12C renal
COLO 205 colon = test system: COLO 205 colon
OVCAR-3 ovarian = test system: OVCAR-3 ovarian
NCI-H460 lung = test system: NCI-H460 lung
SF-295 CNS = test system: SF-295 CNS
DU-145 prostate = test system: DU-145 prostate
A498 renal = test system: A498 renal
CAKI-1 renal = test system: CAKI-1 renal
BT-549 breast = test system: BT-549 breast
MALME-3M melanoma = test system: MALME-3M melanoma
MDA-MB-435 = test system: MDA-MB-435
K-562 leukemia = test system: K-562 leukemia
SK-MEL-28 melanoma = test system: SK-MEL-28 melanoma
MDA-MB-231 breast = test system: MDA-MB-231 breast
NCI/ADR-RES ovarian = test system: NCI/ADR-RES ovarian
UACC-257 melanoma = test system: UACC-257 melanoma

Compound: CNC(=O)c1c(C)oc2cc(Oc3ncnc4cc(OC)c(OC)cc34)ccc12
- GI50 (HOP-92 NSCLC): 3.2 µM
- TGI (HOP-92 NSCLC): > 100 µM
- GI50 (786-0 renal): > 100 µM
- TGI (786-0 renal): > 100 µM
- GI50 (OVCAR-4 ovarian): > 100 µM
- TGI (OVCAR-4 ovarian): > 100 µM
- GI50 (SR leukemia): > 100 µM
- TGI (SR leukemia): > 100 µM
- GI50 (SF-539 CNS): 2.03 µM
- TGI (SF-539 CNS): > 100 µM
- GI50 (SK-OV-3 ovarian): > 100 µM
- TGI (SK-OV-3 ovarian): > 100 µM
- GI50 (KM12 colon): > 100 µM
- TGI (KM12 colon): > 100 µM
- GI50 (EKVX NSCLC): > 100 µM
- TGI (EKVX NSCLC): > 100 µM
- GI50 (CCRF-CEM leukemia): > 100 µM
- TGI (CCRF-CEM leukemia): > 100 µM
- GI50 (TK-10 renal): > 100 µM
- TGI (TK-10 renal): > 100 µM
- GI50 (T-47D breast): > 100 µM
- TGI (T-47D breast): > 100 µM
- GI50 (ACHN renal): > 100 µM
- TGI (ACHN renal): > 100 µM
- GI50 (HCT-15 colon): > 100 µM
- TGI (HCT-15 colon): > 100 µM
- GI50 (SNB-19 CNS): > 100 µM
- TGI (SNB-19 CNS): > 100 µM
- GI50 (HL-60(TB) leukemia): > 100 µM
- TGI (HL-60(TB) leukemia): > 100 µM
- GI50 (OVCAR-8 ovarian): > 100 µM
- TGI (OVCAR-8 ovarian): > 100 µM
- GI50 (MCF7 breast): > 100 µM
- TGI (MCF7 breast): > 100 µM
- GI50 (SK-MEL-2 melanoma): > 100 µM
- TGI (SK-MEL-2 melanoma): > 100 µM
- GI50 (MOLT-4 leukemia): > 100 µM
- TGI (MOLT-4 leukemia): > 100 µM
- GI50 (SF-268 CNS): > 100 µM
- TGI (SF-268 CNS): > 100 µM
- GI50 (OVCAR-5 ovarian): > 100 µM
- TGI (OVCAR-5 ovarian): > 100 µM
- GI50 (NCI-H522 lung): > 100 µM
- TGI (NCI-H522 lung): > 100 µM
- GI50 (NCI-H226 lung): 2.47 µM
- TGI (NCI-H226 lung): > 100 µM
- GI50 (HS 578T breast): 4.18 µM
- TGI (HS 578T breast): > 100 µM
- GI50 (UACC-62 melanoma): > 100 µM
- TGI (UACC-62 melanoma): > 100 µM
- GI50 (RXF 393 renal): 0.235 µM
- TGI (RXF 393 renal): 2.63 µM
- GI50 (A549 NSCLC): > 100 µM
- TGI (A549 NSCLC): > 100 µM
- GI50 (SK-MEL-5 melanoma): > 100 µM
- TGI (SK-MEL-5 melanoma): > 100 µM
- GI50 (RPMI-8226 leukemia): > 100 µM
- TGI (RPMI-8226 leukemia): > 100 µM
- GI50 (IGROV1 ovarian): > 100 µM
- TGI (IGROV1 ovarian): > 100 µM
- GI50 (HT29 colon): > 100 µM
- TGI (HT29 colon): > 100 µM
- GI50 (SW-620 colon): > 100 µM
- TGI (SW-620 colon): > 100 µM
- GI50 (PC-3 prostate): > 100 µM
- TGI (PC-3 prostate): > 100 µM
- GI50 (NCI-H23 lung): > 100 µM
- TGI (NCI-H23 lung): > 100 µM
- GI50 (HOP-62 NSCLC): > 100 µM
- TGI (HOP-62 NSCLC): > 100 µM
- GI50 (HCT-116 colon): > 100 µM
- TGI (HCT-116 colon): > 100 µM
- GI50 (SNB-75 CNS): 2.35 µM
- TGI (SNB-75 CNS): > 100 µM
- GI50 (U251 CNS): 5.51 µM
- TGI (U251 CNS): > 100 µM
- GI50 (HCC-2998 colon): > 100 µM
- TGI (HCC-2998 colon): > 100 µM
- GI50 (LOX IMVI melanoma): > 100 µM
- TGI (LOX IMVI melanoma): > 100 µM
- GI50 (SN12C renal): > 100 µM
- TGI (SN12C renal): > 100 µM
- GI50 (COLO 205 colon): > 100 µM
- TGI (COLO 205 colon): > 100 µM
- GI50 (OVCAR-3 ovarian): > 100 µM
- TGI (OVCAR-3 ovarian): > 100 µM
- GI50 (NCI-H460 lung): > 100 µM
- TGI (NCI-H460 lung): > 100 µM
- GI50 (SF-295 CNS): > 100 µM
- TGI (SF-295 CNS): > 100 µM
- GI50 (DU-145 prostate): > 100 µM
- TGI (DU-145 prostate): > 100 µM
- GI50 (A498 renal): 0.946 µM
- TGI (A498 renal): 5.44 µM
- GI50 (CAKI-1 renal): > 100 µM
- TGI (CAKI-1 renal): > 100 µM
- GI50 (BT-549 breast): > 100 µM
- TGI (BT-549 breast): > 100 µM
- GI50 (MALME-3M melanoma): > 100 µM
- TGI (MALME-3M melanoma): > 100 µM
- GI50 (MDA-MB-435): > 100 µM
- TGI (MDA-MB-435): > 100 µM
- GI50 (K-562 leukemia): > 100 µM
- TGI (K-562 leukemia): > 100 µM
- GI50 (SK-MEL-28 melanoma): > 100 µM
- TGI (SK-MEL-28 melanoma): > 100 µM
- GI50 (MDA-MB-231 breast): > 100 µM
- TGI (MDA-MB-231 breast): > 100 µM
- GI50 (NCI/ADR-RES ovarian): > 100 µM
- TGI (NCI/ADR-RES ovarian): > 100 µM
- GI50 (UACC-257 melanoma): > 100 µM
- TGI (UACC-257 melanoma): > 100 µM
